Test results as given in PubChem BioAssay (NCI).
Values joined by “and” are separate entries in the source; they are usually repeats but may differ in a detail not shown here. Equal values may be shown once.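 Values below derive from 48-hour exposures of cells grown in 96-well plates, with endpoints linearly interpolated between the two concentrations bracketing the appropriate inhibition level. Here, GI50 denotes the concentration required for 50% inhibition of growth. The concentration for full growth arrest is given as TGI.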

Key:
Assay in all cases: NCI tumour cell line growth inhibition, 48 h
ACHN renal = tested on: ACHN renal
CCRF-CEM leukemia = tested on: CCRF-CEM leukemia
DMS 273 small cell lung = tested on: DMS 273 small cell lung
KM20L2 colon = tested on: KM20L2 colon
SK-MEL-2 melanoma = tested on: SK-MEL-2 melanoma
SK-MEL-5 melanoma = tested on: SK-MEL-5 melanoma
UACC-257 melanoma = tested on: UACC-257 melanoma
UACC-62 melanoma = tested on: UACC-62 melanoma
DU-145 prostate = tested on: DU-145 prostate

SMILES	TGI (ACHN renal)	TGI (CCRF-CEM leukemia)	TGI (DMS 273 small cell lung) [µM]	TGI (KM20L2 colon) [µM]	TGI (SK-MEL-2 melanoma) [µM]	TGI (SK-MEL-5 melanoma) [µM]	TGI (UACC-257 melanoma) [µM]	TGI (UACC-62 melanoma) [µM]	GI50 (ACHN renal) [µM]	GI50 (CCRF-CEM leukemia) [µM]	GI50 (DMS 273 small cell lung)	TGI (DU-145 prostate) [µM]	GI50 (SK-MEL-5 melanoma) [µM]	GI50 (UACC-62 melanoma) [µM]	GI50 (KM20L2 colon) [µM]	GI50 (SK-MEL-2 melanoma) [µM]	GI50 (UACC-257 melanoma) [µM]
CCOC(=O)N1C/C(=C\c2ccc(N(C)C)cc2)C(=O)/C(=C/c2ccc(N(C)C)cc2)C1	> 100 µM	> 100 µM	> 100	> 100	> 100	> 100	> 100	> 100	–	–	–	–	–	–	–	–	–
NNC(=O)C(=O)N/N=C1\CCCC1C(=O)CCC(=O)Nc1cccc(Cl)c1 (stereo not drawn)	> 100 µM	> 100 µM	–	> 100	> 100	> 100	> 100	> 100	–	–	–	–	–	–	–	–	–
COC(=O)N1C=CC2=C(C)C3Nc4ccccc4C3C(C)=C2C1 (stereo not drawn)	5.01 µM	15.9 µM	11.7	> 100	2.95	37.2	14.3	6.89	–	–	–	–	–	–	–	–	–
CCOC(=O)c1ccc(N[C@@H]2c3cc4c(cc3C(c3cc(OC)c(O)c(OC)c3)[C@H]3C(=O)OCC32)OCO4)cc1 (stereo partly drawn)	0.75 µM and 1.44 µM	0.925 µM and 1.81 µM	3.85	10.7	6.27	2.95	25	4.08	0.161	0.116	0.134 µM and 0.156 µM	> 100	0.379	0.382	–	–	–
CCCCCCCCCCCCNC(=S)OCCCC	> 100 µM	> 100 µM	> 100	> 100	62.2	> 100	> 100	> 100	–	–	–	–	–	–	–	–	–
NC(=O)c1c(-c2ccccc2)c(-c2ccccc2)cc2c(=O)c3ccccc3[nH]c12	37.7 µM	> 100 µM	46.6	72.9	45.1	32.2	> 100	96.8	–	–	–	–	–	–	–	–	–
CC[C@@]1(O)C(=O)OCc2c1cc1n(c2=O)Cc2cc3c(N)c(OC)ccc3nc2-1	0.0767 µM	0.0409 µM	0.36	1.8	1.47	0.234	2.15	0.0285	0.0255	< 0.01	< 0.0166 µM	–	0.0739	< 0.01	0.125	0.439	0.219
O=S(=O)(c1ccccc1)C1(C2(S(=O)(=O)c3ccccc3)CCN=N2)CCN=N1 (stereo not drawn)	> 100 µM	> 100 µM	> 100	–	> 100	–	> 100	–	–	–	–	–	–	–	–	–	–
O=[N+]([O-])C(=C1c2ccccc2-c2ccccc21)[N+](=O)[O-]	> 100 µM	> 100 µM	> 10	> 100	> 100	–	> 100	> 100	–	–	–	–	–	–	–	–	–
Cc1ccc(C)c(NC(=O)C(=O)C(C2C(C)CC(=O)C2CC(=O)O)[N+](=O)[O-])c1 (stereo not drawn)	> 100 µM	> 100 µM	–	> 100	> 100	> 100	> 100	> 100	–	–	–	–	–	–	–	–	–
CN1C=C(C(N)=O)Cc2ccsc21	> 100 µM	> 100 µM	> 100	> 100	> 100	> 100	> 100	> 100	–	–	–	–	–	–	–	–	–
O=S(=O)([O-])c1ccc(C=Nc2ccccc2)c([O-])c1.O=S(=O)([O-])c1ccc(C=Nc2ccccc2)c([O-])c1.[Co+2]	> 100 µM	> 100 µM	–	> 100	> 100	–	> 100	> 100	48.1	11.7	–	–	–	3.96	1.76	77.8	> 100
